Laboratory results: patent US6737383B1, “Herbicidal oxadiazolidines” (priority 1999, dated 2004)

Legend:
velvetleaf = assay: Test B pre/postemergence velvetleaf; type: in vivo, Abutilon theophrasti; conditions: for Velvetleaf plant response rating (0 to 10 scale): Rate 125 g/ha, 0 is no effect
Outline: (§1)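 Herbicidal effect was estimated by eye on a ten-point control scale after plants spent twelve to sixteen days in a greenhouse following soil or foliar treatment. Foliar sprays targeted plants at one to four leaves; all doses were formulated in a non-phytotoxic solvent with surfactant.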

surinam grass = assay: Test B pre/postemergence surinam grass; type: in vivo, Brachiaria decumbens; conditions: for B. signalgrass plant response rating (0 to 10 scale): 0 is no effect
Outline: as §1

rape = assay: Test B pre/postemergence rape; type: in vivo, Brassica napus; conditions: for Rape plant response rating (0 to 10 scale): 0 is no effect
Outline: as §1

pigweed = assay: Test B pre/postemergence pigweed; type: in vivo, Amaranthus retroflexus; conditions: for Redroot pigweed plant response rating (0 to 10 scale): 0 is no effect
Outline: as §1

corn = assay: Test B pre/postemergence corn; type: in vivo, Zea mays; conditions: for Corn plant response rating (0 to 10 scale): 0 is no effect
Outline: as §1

wild oat = assay: Test B pre/postemergence wild oat; type: in vivo, Avena fatua; conditions: for Wild oats plant response rating (0 to 10 scale): Rate 125 g/ha, 0 is no effect
Outline: as §1

bedstraw = assay: Test B pre/postemergence bedstraw; type: in vivo, Galium aparine; conditions: for Bedstraw plant response rating (0 to 10 scale): 0 is no effect
Outline: as §1

blackgrass = assay: Test B pre/postemergence blackgrass; type: in vivo, Alopecurus myosuroides; conditions: for Blackgrass plant response rating (0 to 10 scale): 0 is no effect
Outline: as §1

wheat = assay: Test B pre/postemergence wheat; type: in vivo, Triticum aestivum; conditions: for Wheat plant response rating (0 to 10 scale): Rate 125 g/ha, 0 is no effect
Outline: as §1

crabgrass = assay: Test B pre/postemergence crabgrass; type: in vivo, Digitaria sanguinalis; conditions: for Crabgrass plant response rating (0 to 10 scale): 0 is no effect
Outline: as §1

soybean = assay: Test B pre/postemergence soybean; type: in vivo, Glycine max; conditions: for Soybean plant response rating (0 to 10 scale): 0 is no effect
Outline: as §1

giant foxtail = assay: Test B pre/postemergence giant foxtail; type: in vivo, Setaria faberii; conditions: for Giant foxtail plant response rating (0 to 10 scale): 0 is no effect
Outline: as §1

morningglory = assay: Test B pre/postemergence morningglory; type: in vivo, Ipomoea hederacea; conditions: for Morningglory plant response rating (0 to 10 scale): 0 is no effect
Outline: as §1

purple nutsedge = assay: Test B pre/postemergence purple nutsedge; type: in vivo, Cyperus rotundus; conditions: for Nutsedge plant response rating (0 to 10 scale): 0 is no effect
Outline: as §1

[1] = Preemergence, Rate 62 g/ha, scale of 0 to 10 where 0 is no effect and 10 is complete control
[2] = Preemergence, 10 is complete control
[3] = Preemergence, Rate 250 g/ha, scale 0 to 10, 0 is no effect, 10 is complete control
[4] = Preemergence, Rate 500 g/ha, scale 0 to 10 (0 no effect, 10 complete control)
[5] = Rate 250 g/ha, Postemergence, scale 0 to 10, 0 is no effect, 10 is complete control
[6] = Rate 500 g/ha, Postemergence, scale 0 to 10
[7] = Postemergence, Rate 125 g/ha, scale of 0 to 10 where 0 is no effect and 10 is complete control
[8] = Preemergence, Rate 125 g/ha, 10 is complete control
[9] = Rate 62 g/ha, Postemergence, scale of 0 to 10 where 0 is no effect and 10 is complete control
[10] = Rate 500 g/ha, Postemergence, scale 0 to 10, 0 no effect, 10 complete control

## CC1CCCCC1n1c(=O)on(C(=O)N(c2ccccc2)C(C)C)c1=O (stereo not shown) [Compound 162]
velvetleaf; [1]
  Velvetleaf plant response rating: 0
velvetleaf; [2]
  Velvetleaf plant response rating (0 to 10 scale): 0
velvetleaf; [3]
  Velvetleaf plant response rating: 0
velvetleaf; [4]
  Velvetleaf plant response rating: 0
velvetleaf; [5]
  Plant response rating, Velvetleaf: 4
velvetleaf; [6]
  Velvetleaf plant response rating: 4
Surinam grass; [7]
  B. signalgrass plant response rating: 0
Surinam grass; [1]
  B. signalgrass plant response rating: 0
Surinam grass; [8]
  B. signalgrass plant response rating (0 to 10 scale): 2
Surinam grass; [3]
  B. signalgrass plant response rating: 3
Surinam grass; [4]
  B. signalgrass plant response rating: 7
Surinam grass; [9]
  B. signalgrass plant response rating: 0
Surinam grass; [5]
  Plant response rating, B. signalgrass: 0
Surinam grass; [10]
  B. signalgrass plant response rating: 4
rape; [7]
  Rape plant response rating: 0
rape; [1]
  Rape plant response rating: 0
rape; [8]
  Rape plant response rating (0 to 10 scale): 2
rape; [3]
  Rape plant response rating: 4
rape; [4]
  Rape plant response rating: 9
rape; [9]
  Rape plant response rating: 0
rape; [5]
  Plant response rating, Rape: 0
rape; [6]
  Rape plant response rating: 0
pigweed; [7]
  Redroot pigweed plant response rating: 0
pigweed; [1]
  Redroot pigweed plant response rating: 0
pigweed; [8]
  Redroot pigweed plant response rating (0 to 10 scale): 0
pigweed; [3]
  Redroot pigweed plant response rating: 0
pigweed; [4]
  Redroot pigweed plant response rating: 7
pigweed; [9]
  Redroot pigweed plant response rating: 0
pigweed; [5]
  Plant response rating, Redroot pigweed: 0
pigweed; [6]
  Redroot pigweed plant response rating: 0
corn; [7]
  Corn plant response rating: 0
corn; [1]
  Corn plant response rating: 0
corn; [8]
  Corn plant response rating (0 to 10 scale): 0
corn; [3]
  Corn plant response rating: 0
corn; [4]
  Corn plant response rating: 0
corn; [9]
  Corn plant response rating: 0
corn; [5]
  Plant response rating, Corn: 0
corn; [6]
  Corn plant response rating: 0
Wild oat; [1]
  Wild oats plant response rating: 0
Wild oat; [2]
  Wild oats plant response rating (0 to 10 scale): 0
Wild oat; [3]
  Wild oats plant response rating: 2
Wild oat; [4]
  Wild oats plant response rating: 5
Wild oat; [5]
  Plant response rating, Wild oats: 0
Wild oat; [6]
  Wild oats plant response rating: 4
bedstraw; [7]
  Bedstraw plant response rating: 2
bedstraw; [1]
  Bedstraw plant response rating: 0
bedstraw; [8]
  Bedstraw plant response rating (0 to 10 scale): 0
bedstraw; [3]
  Bedstraw plant response rating: 0
bedstraw; [4]
  Bedstraw plant response rating: 0
bedstraw; [9]
  Bedstraw plant response rating: 0
bedstraw; [5]
  Plant response rating, Bedstraw: 3
bedstraw; [6]
  Bedstraw plant response rating: 6
blackgrass; [7]
  Blackgrass plant response rating: 0
blackgrass; [1]
  Blackgrass plant response rating: 0
blackgrass; [8]
  Blackgrass plant response rating (0 to 10 scale): 2
blackgrass; [3]
  Blackgrass plant response rating: 2
blackgrass; [4]
  Blackgrass plant response rating: 3
blackgrass; [9]
  Blackgrass plant response rating: 0
blackgrass; [5]
  Plant response rating, Blackgrass: 0
blackgrass; [6]
  Blackgrass plant response rating: 6
wheat; [1]
  Wheat plant response rating: 0
wheat; [2]
  Wheat plant response rating (0 to 10 scale): 0
wheat; [3]
  Wheat plant response rating: 0
wheat; [4]
  Wheat plant response rating: 0
wheat; [5]
  Plant response rating, Wheat: 0
wheat; [6]
  Wheat plant response rating: 0
crabgrass; [7]
  Crabgrass plant response rating: 2
crabgrass; [1]
  Crabgrass plant response rating: 6
crabgrass; [8]
  Crabgrass plant response rating (0 to 10 scale): 8
crabgrass; [3]
  Crabgrass plant response rating: 9
crabgrass; [4]
  Crabgrass plant response rating: 10
crabgrass; [9]
  Crabgrass plant response rating: 0
crabgrass; [5]
  Plant response rating, Crabgrass: 6
crabgrass; [6]
  Crabgrass plant response rating: 8
soybean; [7]
  Soybean plant response rating: 4
soybean; [1]
  Soybean plant response rating: 0
soybean; [8]
  Soybean plant response rating (0 to 10 scale): 0
soybean; [3]
  Soybean plant response rating: 0
soybean; [4]
  Soybean plant response rating: 0
soybean; [9]
  Soybean plant response rating: 3
soybean; [5]
  Plant response rating, Soybean: 4
soybean; [6]
  Soybean plant response rating: 4
Giant foxtail; [7]
  Giant foxtail plant response rating: 2
Giant foxtail; [1]
  Giant foxtail plant response rating: 7
Giant foxtail; [8]
  Giant foxtail plant response rating (0 to 10 scale): 7
Giant foxtail; [3]
  Giant foxtail plant response rating: 9
Giant foxtail; [4]
  Giant foxtail plant response rating: 9
Giant foxtail; [9]
  Giant foxtail plant response rating: 0
Giant foxtail; [5]
  Plant response rating, Giant foxtail: 2
Giant foxtail; [6]
  Giant foxtail plant response rating: 3
morningglory; [7]
  Morningglory plant response rating: 6
morningglory; [1]
  Morningglory plant response rating: 0
morningglory; [8]
  Morningglory plant response rating (0 to 10 scale): 0
morningglory; [3]
  Morningglory plant response rating: 0
morningglory; [4]
  Morningglory plant response rating: 0
morningglory; [9]
  Morningglory plant response rating: 6
morningglory; [5]
  Plant response rating, Morningglory: 10
morningglory; [6]
  Morningglory plant response rating: 10
Purple nutsedge; [7]
  Nutsedge plant response rating: 0
Purple nutsedge; [1]
  Nutsedge plant response rating: 0
Purple nutsedge; [8]
  Nutsedge plant response rating (0 to 10 scale): 0
Purple nutsedge; [3]
  Nutsedge plant response rating: 0
Purple nutsedge; [4]
  Nutsedge plant response rating: 0
Purple nutsedge; [9]
  Nutsedge plant response rating: 0
Purple nutsedge; [5]
  Plant response rating, Nutsedge: 0
Purple nutsedge; [6]
  Nutsedge plant response rating: 2

## CC(C)N(C(=O)n1oc(=O)n([C@@H](C)c2ccccc2)c1=O)c1ccc(Cl)cc1 [Compound 174]
velvetleaf; [1]
  Velvetleaf plant response rating: 0
velvetleaf; [2]
  Velvetleaf plant response rating (0 to 10 scale): 0
velvetleaf; [3]
  Velvetleaf plant response rating: 0
velvetleaf; [4]
  Velvetleaf plant response rating: 0
velvetleaf; [5]
  Plant response rating, Velvetleaf: 0
velvetleaf; [6]
  Velvetleaf plant response rating: 0
Surinam grass; [7]
  B. signalgrass plant response rating: 0
Surinam grass; [1]
  B. signalgrass plant response rating: 0
Surinam grass; [8]
  B. signalgrass plant response rating (0 to 10 scale): 0
Surinam grass; [3]
  B. signalgrass plant response rating: 0
Surinam grass; [4]
  B. signalgrass plant response rating: 4
Surinam grass; [9]
  B. signalgrass plant response rating: 0
Surinam grass; [5]
  Plant response rating, B. signalgrass: 0
Surinam grass; [10]
  B. signalgrass plant response rating: 0
rape; [7]
  Rape plant response rating: 0
rape; [1]
  Rape plant response rating: 0
rape; [8]
  Rape plant response rating (0 to 10 scale): 0
rape; [3]
  Rape plant response rating: 0
rape; [4]
  Rape plant response rating: 4
rape; [9]
  Rape plant response rating: 0
rape; [5]
  Plant response rating, Rape: 0
rape; [6]
  Rape plant response rating: 2
pigweed; [7]
  Redroot pigweed plant response rating: 4
pigweed; [1]
  Redroot pigweed plant response rating: 0
pigweed; [8]
  Redroot pigweed plant response rating (0 to 10 scale): 6
pigweed; [3]
  Redroot pigweed plant response rating: 8
pigweed; [4]
  Redroot pigweed plant response rating: 9
pigweed; [9]
  Redroot pigweed plant response rating: 0
pigweed; [5]
  Plant response rating, Redroot pigweed: 6
pigweed; [6]
  Redroot pigweed plant response rating: 6
corn; [7]
  Corn plant response rating: 0
corn; [1]
  Corn plant response rating: 0
corn; [8]
  Corn plant response rating (0 to 10 scale): 0
corn; [3]
  Corn plant response rating: 0
corn; [4]
  Corn plant response rating: 0
corn; [9]
  Corn plant response rating: 0
corn; [5]
  Plant response rating, Corn: 0
corn; [6]
  Corn plant response rating: 0
Wild oat; [1]
  Wild oats plant response rating: 0
Wild oat; [2]
  Wild oats plant response rating (0 to 10 scale): 0
Wild oat; [3]
  Wild oats plant response rating: 0
Wild oat; [4]
  Wild oats plant response rating: 0
Wild oat; [5]
  Plant response rating, Wild oats: 0
Wild oat; [6]
  Wild oats plant response rating: 0
bedstraw; [7]
  Bedstraw plant response rating: 4
bedstraw; [1]
  Bedstraw plant response rating: 0
bedstraw; [8]
  Bedstraw plant response rating (0 to 10 scale): 0
bedstraw; [4]
  Bedstraw plant response rating: 3
bedstraw; [9]
  Bedstraw plant response rating: 0
bedstraw; [5]
  Plant response rating, Bedstraw: 6
blackgrass; [7]
  Blackgrass plant response rating: 0
blackgrass; [1]
  Blackgrass plant response rating: 0
blackgrass; [8]
  Blackgrass plant response rating (0 to 10 scale): 2
blackgrass; [3]
  Blackgrass plant response rating: 2
blackgrass; [4]
  Blackgrass plant response rating: 2
blackgrass; [9]
  Blackgrass plant response rating: 0
blackgrass; [5]
  Plant response rating, Blackgrass: 0
blackgrass; [6]
  Blackgrass plant response rating: 3
wheat; [1]
  Wheat plant response rating: 0
wheat; [2]
  Wheat plant response rating (0 to 10 scale): 0
wheat; [3]
  Wheat plant response rating: 0
wheat; [4]
  Wheat plant response rating: 0
wheat; [5]
  Plant response rating, Wheat: 0
wheat; [6]
  Wheat plant response rating: 0
crabgrass; [7]
  Crabgrass plant response rating: 4
crabgrass; [1]
  Crabgrass plant response rating: 2
crabgrass; [8]
  Crabgrass plant response rating (0 to 10 scale): 8
crabgrass; [3]
  Crabgrass plant response rating: 8
crabgrass; [4]
  Crabgrass plant response rating: 10
crabgrass; [9]
  Crabgrass plant response rating: 2
crabgrass; [5]
  Plant response rating, Crabgrass: 7
crabgrass; [6]
  Crabgrass plant response rating: 8
soybean; [7]
  Soybean plant response rating: 2
soybean; [1]
  Soybean plant response rating: 0
soybean; [8]
  Soybean plant response rating (0 to 10 scale): 0
soybean; [3]
  Soybean plant response rating: 0
soybean; [4]
  Soybean plant response rating: 0
soybean; [9]
  Soybean plant response rating: 2
soybean; [5]
  Plant response rating, Soybean: 2
soybean; [6]
  Soybean plant response rating: 4
Giant foxtail; [7]
  Giant foxtail plant response rating: 0
Giant foxtail; [1]
  Giant foxtail plant response rating: 8
Giant foxtail; [8]
  Giant foxtail plant response rating (0 to 10 scale): 9
Giant foxtail; [3]
  Giant foxtail plant response rating: 10
Giant foxtail; [4]
  Giant foxtail plant response rating: 10
Giant foxtail; [9]
  Giant foxtail plant response rating: 0
Giant foxtail; [5]
  Plant response rating, Giant foxtail: 0
Giant foxtail; [6]
  Giant foxtail plant response rating: 1
morningglory; [7]
  Morningglory plant response rating: 5
morningglory; [1]
  Morningglory plant response rating: 0
morningglory; [8]
  Morningglory plant response rating (0 to 10 scale): 0
morningglory; [3]
  Morningglory plant response rating: 0
morningglory; [4]
  Morningglory plant response rating: 0
morningglory; [9]
  Morningglory plant response rating: 3
morningglory; [5]
  Plant response rating, Morningglory: 5
morningglory; [6]
  Morningglory plant response rating: 5
Purple nutsedge; [7]
  Nutsedge plant response rating: 0
Purple nutsedge; [1]
  Nutsedge plant response rating: 0
Purple nutsedge; [8]
  Nutsedge plant response rating (0 to 10 scale): 0
Purple nutsedge; [9]
  Nutsedge plant response rating: 0
Purple nutsedge; [5]
  Plant response rating, Nutsedge: 0
Purple nutsedge; [6]
  Nutsedge plant response rating: 0
